Results as given in patent US9771358B2, “Dihydropyrimidine compounds and their application in pharmaceuticals” (SUNSHINE LAKE PHARMA CO., LTD., priority 2014, dated 2017).
Read-outs that look alike come from different tables or passages of the source.

Key:
[1] = Stability in liver microsome, dog; type: in vitro ADME; details: liver microsomes; dog liver microsome 0.1 mg/mL, compound 1 μM, NADPH 2 mM
Protocol: (§1) Then two parallel samples were prepared. After a 10 minutes preincubation at 37° C., 15 μL of NADPH solution (8 mM) was added according to the point-in-time. The final concentration of the text compound was 1 μM, the concentration of liver microsome was 0.1 mg/mL, the final concentration of NADPH was 2 mM. The incubations were last for 0, 15, 30, 60 min respectively, and then 150 μL of acetonitrile (include interior label) was added to the mixture system. After dilution with acetonitrile, the samples were centrifuged for 5 minutes in 4000 rpm. The supernatant liquid was collected for LC-MS/MS analysis.

[2] = Stability in liver microsome, monkey; type: in vitro ADME; details: liver microsomes; monkey liver microsome 0.1 mg/mL, compound 1 μM, NADPH 2 mM
Protocol: as §1

HBV = experiment: In-vitro anti-HBV activity in stable HBV-producing cell line (HepG2.2.15), HBV DNA by qPCR; type: cell-based; details: Hepatitis B virus, 168 h; HepG2.2.15 cells, HBV DNA in culture fluid, day 7, top concentration 16.4 μM
How it was run: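 HepG2.2.15 cells are dosed 24 hours after seeding, top concentration 16.4 μM with 3-fold dilutions over 9 points in duplicate, and medium is refreshed on day 4. Supernatant HBV DNA is quantified by qPCR on day 7 against DMSO control, and EC50 comes from a four-parameter logistic fit.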

[3] = Stability in liver microsome, human; type: in vitro ADME; details: liver microsomes; human liver microsome 0.1 mg/mL, compound 1 μM, NADPH 2 mM
Protocol: as §1

[4] = PK of test compounds in beagle; type: in vivo, beagle dog; details: for Cmax / Tmax / clearance / half-life / AUC(0-inf) / AUC(0-t) / Vd: dog, plasma; for AUC(0-inf): AUC in 0 hour to infinite time; for Vd: read-out: Vss; for F: absolute bioavailability
Protocol: The test compounds were administrated to beagle dog by gavage in dose of 2.5 mg/kg or 5 mg/kg, or by intravenous injection in dose of 1 mg/kg or 2 mg/kg. Blood sample was collected at 0.083, 0.25, 0.5, 1, 2, 4, 6, 8 and 24 hours from vein after administration into anticoagulation tubes with EDTA-K2. The test compounds were extracted from plasma samples and chromatographed on a tandem mass spectrometer. Quantitation was performed using multiple reaction monitoring (MRM). Pharmacokinetic parameters were calculated using WinNonlin 6.3 software with non compartment model.

[5] = Stability in liver microsome, mouse; type: in vitro ADME; details: liver microsomes; mouse liver microsome 0.1 mg/mL, compound 1 μM, NADPH 2 mM
Protocol: as §1

[6] = iv, 1 mg/kg, iv, 1 mg/kg, AUC in 0-24 hours, read-out: AUClast
[7] = po, 2.5 mg/kg, po, 2.5 mg/kg value multiplied by 2, read-out: AUClast ×2 (calculated by dosage)
[8] = po, 2.5 mg/kg, po, 2.5 mg/kg, AUC in 0-24 hours, read-out: AUClast

SMILES	CLint scaled at 1 μM [1] [mL/min/kg]	half-life at 1 μM [1] [h]	CLint scaled at 1 μM [2] [mL/min/kg]	half-life at 1 μM [2] [h]	EC50 (HBV) [nM]	CLint scaled at 1 μM [3] [mL/min/kg]	half-life at 1 μM [3] [h]	Cmax ([4]; iv, 1 mg/kg) [ng/mL]	Tmax ([4]; iv, 1 mg/kg) [h]	clearance ([4]; iv, 1 mg/kg) [mL/min/kg]	half-life ([4]; iv, 1 mg/kg) [h]	AUC(0-inf) ([4]; iv, 1 mg/kg) [ng·h/mL]	AUC(0-t) [4, 6] [ng·h/mL]	Vd ([4]; iv, 1 mg/kg) [L/kg]	Cmax ([4]; po, 2.5 mg/kg) [ng/mL]	Tmax ([4]; po, 2.5 mg/kg) [h]	half-life ([4]; po, 2.5 mg/kg) [h]	AUC(0-inf) ([4]; po, 2.5 mg/kg) [ng·h/mL]	CLint scaled at 1 μM [5] [mL/min/kg]	half-life at 1 μM [5] [h]	other results
COC(=O)C1=C(CN2CCO[C@H](CCC(=O)O)C2)NC(c2nccs2)=N[C@H]1c1ccc(F)cc1Cl [Example 10, 3-((R)-4-(((R)-6-(2-Chloro-4-fluorophenyl)-5-(methoxycarbonyl)-2-(thiazol-2-yl)-3,6-dihydropyrimidin-4-yl)methyl)morpholin-2-yl)propanoic acid]	6.13	9.39	15.4	2.19	45	3.72	7.78	2430	0.083	1.74	5.16	9710	9400	0.62	4560	0.833	4.57	28000	57.7	1.58	AUC(0-t) [4, 7]: 54000 ng·h/mL; AUC(0-t) [4, 8]: 27400 ng·h/mL; F ([4]; po, 2.5 mg/kg): 115%
CCOC(=O)C1=C(CN2CCO[C@H](CCC(=O)O)C2)NC(c2nccs2)=N[C@H]1c1ccc(F)cc1Br [Example 2, 3-((R)-4-(((R)-6-(2-Bromo-4-fluorophenyl)-5-(ethoxycarbonyl)-2-(thiazol-2-yl)-3,6-dihydropyrimidin-4-yl)methyl)morpholin-2-yl)propanoic acid]	14.3	4.02	107	0.314	35	17.5	1.66	2050	0.083	1.93	5.71	8700	8270	0.756					385	0.236	Cmax ([4]; po, 5 mg/kg): 6330 ng/mL; Tmax ([4]; po, 5 mg/kg): 1.33 h; half-life ([4]; po, 5 mg/kg): 5.1 h; AUC(0-inf) ([4]; po, 5 mg/kg): 49600 ng·h/mL; AUC(0-t) ([4]; po, 5 mg/kg, po, 5 mg/kg, AUC in 0-24 hours, read-out: AUClast): 47900 ng·h/mL; F ([4]; po, 5 mg/kg): 114.1%
COC(=O)C1=C(CN2CCO[C@H](CCC(=O)O)C2)NC(c2nccs2)=N[C@H]1c1ccc(Cl)cc1Cl [Example 13, 3-((R)-4-(((R)-6-(2,4-dichlorophenyl)-5-(methoxycarbonyl)-2-(thiazol-2-yl)-3,6-dihydropyrimidin-4-yl)methyl)morpholin-2-yl)propanoic acid]	5.51	10.5	36	0.94	28	17.2	1.68	2920	0.083	1.49	5.08	11600	11200	0.526	6410	0.667	5.29	33300	135	0.673	AUC(0-t) [4, 7]: 64400 ng·h/mL; AUC(0-t) [4, 8]: 32200 ng·h/mL; F ([4]; po, 2.5 mg/kg): 105.6%
